The target of one data set is T1, thrombin receptor (Homo sapiens, UniProt P25116).
T1 sequence (P25116 22-425): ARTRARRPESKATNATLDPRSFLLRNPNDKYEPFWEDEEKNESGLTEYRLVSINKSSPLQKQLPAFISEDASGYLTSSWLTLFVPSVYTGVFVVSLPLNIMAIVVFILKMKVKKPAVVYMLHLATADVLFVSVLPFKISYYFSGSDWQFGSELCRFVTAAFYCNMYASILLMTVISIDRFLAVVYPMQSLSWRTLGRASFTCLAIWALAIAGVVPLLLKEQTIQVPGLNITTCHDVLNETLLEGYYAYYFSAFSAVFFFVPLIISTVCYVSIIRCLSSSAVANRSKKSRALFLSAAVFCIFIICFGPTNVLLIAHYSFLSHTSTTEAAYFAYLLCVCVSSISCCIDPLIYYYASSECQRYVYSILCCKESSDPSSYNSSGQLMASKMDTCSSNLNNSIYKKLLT
To be noted: cited from earlier work.

The nature of data set [1]: Compatibility studies between clopidogrel premix and 530348 bisulfate / free base. An excerpt:
b. […] Clopidogrel is known to degrade under acidic and alkaline conditions. […] To test this hypothesis, the above studies were repeated in the presence of 530348 free base.

The conditions of data set [2]: forced degradation data generated at Dr. Reddy's Lab; cited from earlier work.

“Also recorded” adds a separate entry of the source.

In the case of `CCOC(=O)N[C@@H]1CC[C@@H]2[C@@H](C1)C[C@H]1C(=O)O[C@H](C)[C@H]1[C@H]2/C=C/c1ccc(-c2cccc(F)c2)cn1` [SCH 530348 bisulfate], at thrombin receptor, the Selectivity entry is given as “good” and the “Thrombin receptor antagonist activity (potency)” value is reported as “good”.

Take `CCOC(=O)N[C@@H]1CC[C@@H]2[C@@H](C1)C[C@H]1C(=O)O[C@H](C)[C@H]1[C@H]2/C=C/c1ccc(-c2cccc(F)c2)cn1` [SCH 530348, ethyl[(1R,3aR,4aR,6R,8aR,9S,9aS)-9-[(E)-2-[5-(3-fluorophenyl)-2-pyridinyl]ethenyl]dodecahydro-1-methyl-3-oxonaphtho[2,3-c]furan-6-yl]carbamate]: at thrombin receptor, the Selectivity entry is listed as “good” and the “Thrombin receptor antagonist activity (potency)” value is reported as “good”.

Take `COC(=O)[C@H](c1ccccc1Cl)N1CCc2sccc2C1` [clopidogrel]: the “Extent of clopidogrel degradation” value in data set [1] (bisulfate salt compared to 530348 free base (FIG. 2)) is listed as “greater in the presence of the bisulfate salt”. The Clopidogrel degradation result in data set [1] (in the presence of 530348 bisulfate) is recorded as “significant degradation; also recorded: degrades”. Moreover, the “Susceptibility of clopidogrel to degradation” value in data set [2] is “susceptible to degradation upon exposure to heat, humidity, and oxygen”.

Source of the values: US20120141586A1, “THROMBIN RECEPTOR ANTAGONIST AND CLOPIDOGREL FIXED DOSE TABLET” (priority 2009, published 2012).
